Patent EP0311616B1, “COMBINATIONS OF GAMMA INTERFERONS AND ANTI-INFLAMMATORY OR ANTI-PYRETIC AGENTS FOR TREATING DISEASES” (BIOGEN, INC., priority 1986, dated 1987)
Where two headings read alike, the source gives them in different places.

Tests used:
[1] = day 6
From the text: (§1) In each example, following the standardized protocol for the Subrenal Capsule™ Assay [A.E. Bogden, P.M. Haskell, D.J. LePage, D.E. Kelton, W.R. Cobb, H.J. Esber, "Growth Of Human Tumor Xenografts Implanted Under The Renal Capsule Of Normal Immunocompetent Mice", Exp. Cell Biology, 47, pp. 281-93 (1979)], we implanted BL/MEX6 human melanoma established in serial transplantation (Bogden Laboratories) under the renal capsule of normal, immunocompetent mice (BALB/c × DBA/2) F₁ (CDF₁) (Examples 1 and 2) and into (B6C3F₁) mice (Example 3). Each mouse weighed approximately 25 grams. We then divided the mice into treatment groups as follows: group 1: 10 mice, groups 2-7: 8 mice each.
(§2) In each example, for each mouse, we recorded initial body weight, implanted a tumor and recorded an initial in situ tumor measurement (two diameters) in ocular micrometer units (omu). We administered treatment on days 1-5. Survivors were recorded and any mice dying prior to sacrifice were necropsied. On day 6, the mice were sacrificed, final body weights were recorded, implanted kidneys were removed and final in situ tumor measurements were made to determine tumor growth inhibition or regression. We calculated the ratio of average final body weight to initial body weight (FBW/IBW) to monitor systemic toxicity. Change in (Δ) tumor size between day of sacrifice (day 6) and day of tumor implant (day 0) was calculated individually and for each group.

[2] = test system: BL/MEX6 human melanoma; test: six day Subrenal Capsule Assay, tumor xenograft implanted under the renal capsule of normal immunocompetent mice; type: in vivo; settings: for Avg. Δ Tumor Size (mean ± S.D.): change Day 6-Day 0; for Tumor Response: summary of Examples 1-3, IFN-γ i.m., cortisone and prednisone s.c., all other agents p.o., b.i.d., QD1-5, significance of inhibition vs control
From the text: as §1
Over a five-day period, we treated each of groups 4-7 of mice with one of the following anti-inflammatory agents or anti-pyretic agents, either singly or in combination with IFN-γ (IFN-γ dosage: 2,000 µg/Kg/inj., b.i.d., i.m.):
The anti-inflammatory agents or anti-pyretic agents were administered prior to IFN-γ in all combination treatment groups. In each example, we treated groups 1-3 of mice as follows: Group 1: 0.25 ml/inj., b.i.d., i.m. PBS (vehicle treated control) Group 2: 400 mg/Kg/inj., s.c. DTIC [dacarbazine] (positive chemotherapy control) Group 3: 2,000 µg/Kg/inj., b.i.d., i.m. IFN-γ
as §2

[3] = Example 2, CDF1 mice, treatment QD1-5 at doses of Table III
[4] = Example 2, (BALB/c × DBA/2) F1 (CDF1) mice, treatment QD1-5 at doses of Table III
[5] = Example 2, CDF1 mice, treatment QD1-5 at doses of Table III, day 6
[6] = Example 3, B6C3F1 mice, treatment QD1-5 at doses of Table V
[7] = Example 3, (B6C3F1) mice, treatment QD1-5 at doses of Table V
[8] = Example 3, B6C3F1 mice, treatment QD1-5 at doses of Table V, day 6
[9] = Example 1, CDF1 mice, treatment QD1-5 at doses of Table I
[10] = Example 1, (BALB/c × DBA/2) F1 (CDF1) mice, treatment QD1-5 at doses of Table I
[11] = Example 1, CDF1 mice, treatment QD1-5 at doses of Table I, day 6

| Structure (SMILES) | FBW/IBW (Final Body Weight/Initial Body Weight) [1, 3] | Avg. Δ Tumor Size (mean ± S.D.) [2, 4] [omu] | Percent Test/Control [2, 5] [%] | Test-Control (Δ tumor size (test) minus Δ tumor size (control), degree of tumor inhibition) [2, 5] [omu] | Tumor Response [2] | FBW/IBW (Final Body Weight/Initial Body Weight) [1, 6] | Avg. Δ Tumor Size (mean ± S.D.) [2, 7] [omu] | Percent Test/Control [2, 8] [%] | Test-Control (Δ tumor size (test) minus Δ tumor size (control), degree of tumor inhibition) [2, 8] [omu] | FBW/IBW (Final Body Weight/Initial Body Weight) [1, 9] | Avg. Δ Tumor Size (mean ± S.D.) [2, 10] [omu] | Percent Test/Control [2, 11] [%] | Test-Control (Δ tumor size (test) minus Δ tumor size (control), degree of tumor inhibition) [2, 11] [omu] | R = regression from original size using the formula FTS (final tumor size)-ITS (initial tumor size)/ITS x 100 ([2]; Example 2, CDF1 mice, printed as R plus number in the Percent Test/Control column, day 6) | R = regression from original size using the formula (FTS-ITS)/ITS x 100 ([2]; Example 3, B6C3F1 mice, printed as R plus number in the Percent Test/Control column, day 6) |
| --- | --- | --- | --- | --- | --- | --- | --- | --- | --- | --- | --- | --- | --- | --- | --- |
| CC(=O)Oc1ccccc1C(=O)O [ASA, acetyl salicylic acid] | 0.93 | 3.2±1.95 | 80 | -0.80 | - |  |  |  |  |  |  |  |  |  |  |
| CC(=O)Nc1ccc(O)cc1 [Acetaminophen] |  | 1.9±1.46 | 48 | -2.10 | ++ (Significant inhibition p<0.01) |  |  |  |  |  |  |  |  |  |  |
| C[C@]12CCC(=O)C=C1CC[C@@H]1[C@@H]2C(=O)C[C@@]2(C)[C@H]1CC[C@]2(O)C(=O)CO [Cortisone] |  |  |  |  | + (Significant inhibition p<0.05) | 0.96 | 1.3±1.73 | 37 | -2.20 |  |  |  |  |  |  |
| CN(C)/N=N/c1[nH]cnc1C(N)=O [DTIC, dacarbazine] | 0.81 | -0.2±0.70 |  | -4.20 |  | 0.81 | -0.2±1.00 |  | -3.70 | 0.86 | 0.5±0.7 | 14 | -3.20 | R2% | R2% |
| COc1ccc2c(c1)c(CC(=O)O)c(C)n2C(=O)c1ccc(Cl)cc1 [Indomethacin] |  |  |  |  | - |  |  |  |  | 0.98 | 3.1±1.69 | 84 | -0.60 |  |  |
| COc1ccc2cc([C@H](C)C(=O)O)ccc2c1 [Naproxen] |  |  |  |  | - |  |  |  |  | 0.99 | 2.8±1.28 | 76 | -0.90 |  |  |
| C[C@]12C=CC(=O)C=C1CC[C@@H]1[C@@H]2C(=O)C[C@@]2(C)[C@H]1CC[C@]2(O)C(=O)CO [Prednisone] |  |  |  |  | ++ (Significant inhibition p<0.01) |  | 0.6±1.57 | 17 | -2.90 |  |  |  |  |  |  |
